According to patent publication US12497397B2, “Pyrrole compounds useful as antifungals” (WIGEN BIOMEDICINE TECHNOLOGY (SHANGHAI) CO., LTD., priority 2019, dated 2025):
In brackets after ≈: the same amount, converted by molar mass.

Key:
Assay in all cases: In vitro minimum inhibitory concentration (MIC) test
Type in all cases: cell-based
Conditions in all cases: RPMI 1640, 35° C., 24-48 h, 485 nm, lowest concentration inhibiting growth more than 80%
[1] = system: Aspergillus flavus
Description: (§1) Example 20: In Vtro Minimum Inhibitory Concentration (MIC) Test Strains used in the experiment are inoculated on Sabouraud glucose agar culture medium and cultured at 35° C. for 5 d; then 1 mL of 0.2% Tween diluted with 0.85% sterile normal saline is added into Sabouraud dextrose agar culture medium, and plate is shaken, before solution collected from plate surface is transferred into sterile tube, and fungus containing supernatant is transferred into sterile tube in full suspension so as to prepare strain diluent with concentration from 0.4*10^6 to 5*10^6 CFU/mL. Strain diluent prepared herein is diluted into RPMI 1640 culture medium in a ratio of 1:100. Such biological suspension is added into hole on the plate which contains drug diluent; all plates are incubated at 35° C. for 24-48 h, and light in wavelength of 485 nm is monitored for each hole to evaluate strain growth. MIC of compound is defined as follows: Compared with negative control free of drug, the lowest drug concentration able to inhibit growth for more than 80% of strains. A indicates MIC value>0.1 μg/mL, B indicates 0.1 μg/mL≥MIC value>0.01 μg/mL, and C indicates MIC value<0.01 μg/mL.

[2] = system: Aspergillus fumigatus
Description: as §1

[3] = system: Aspergillus niger
Description: as §1

[4] = system: Aspergillus terreus
Description: as §1

| SMILES | MIC [1] | MIC [2] | MIC [3] | MIC [4] |
| --- | --- | --- | --- | --- |
| CCC(C)n1ncn(-c2ccc(N3CCN(c4ccc(OCC5COC(Cn6cncn6)(c6ccc(Cl)cc6Cl)O5)cc4)CC3)cc2)c1=O (stereo not drawn) [Itraconazole, reference compound] | > 0.1 µg/mL | > 0.1 µg/mL | > 0.1 µg/mL | > 0.1 µg/mL |
| Cc1cc(C)nc(N2CCN3c4ccc(NC(=O)C(=O)c5c(-c6ccccc6)cc(C)n5C)cc4N(C)C[C@@H]3C2)c1 [Example 13-A] | 0.01 to 0.1 µg/mL (≈ 0.0182 to 0.182 µM) | < 0.01 µg/mL | 0.01 to 0.1 µg/mL (≈ 0.0182 to 0.182 µM) | < 0.01 µg/mL |
| Cc1cc(C)nc(N2CCN3c4ccc(NC(=O)C(=O)c5c(-c6ccccc6)cc(C)n5C)cc4N(C)C[C@H]3C2)c1 [Example 13-B] | 0.01 to 0.1 µg/mL (≈ 0.0182 to 0.182 µM) | < 0.01 µg/mL | 0.01 to 0.1 µg/mL (≈ 0.0182 to 0.182 µM) | < 0.01 µg/mL |
| Cc1cc(C)nc(N2CCN3c4ccc(NC(=O)C(=O)c5c(-c6ccccc6)cc(C)n5C)cc4N(C)CC3C2)c1 (stereo not drawn) [Example 13] | 0.01 to 0.1 µg/mL (≈ 0.0182 to 0.182 µM) | < 0.01 µg/mL | 0.01 to 0.1 µg/mL (≈ 0.0182 to 0.182 µM) | < 0.01 µg/mL |
| Cc1cc(-c2ccccc2)c(C(=O)C(=O)Nc2ccc3c(c2)OC[C@@H]2CN(c4ncc(F)cn4)CCN32)n1C [Example 1-A] | < 0.01 µg/mL | < 0.01 µg/mL | < 0.01 µg/mL | < 0.01 µg/mL |
| Cc1cc(C)nc(N2CCN3c4ccc(NC(=O)C(=O)c5c(-c6ccccc6)cc(C)n5C)cc4OC[C@@H]3C2)c1 [Example 2-A] | < 0.01 µg/mL | < 0.01 µg/mL | < 0.01 µg/mL | < 0.01 µg/mL |
| Cc1cc(-c2ccccc2)c(C(=O)C(=O)Nc2ccc3c(c2)OCC2CN(CC(C)(C)C)CCN32)n1C (stereo not drawn) [Example 8] | 0.01 to 0.1 µg/mL (≈ 0.02 to 0.2 µM) | < 0.01 µg/mL | 0.01 to 0.1 µg/mL (≈ 0.02 to 0.2 µM) | < 0.01 µg/mL |
| Cc1cc(-c2ccccc2)c(C(=O)C(=O)Nc2ccc3c(c2)N(C)CC2CN(c4ncc(F)cn4)CCN32)n1C (stereo not drawn) [Example 12] | 0.01 to 0.1 µg/mL (≈ 0.0185 to 0.185 µM) | < 0.01 µg/mL | 0.01 to 0.1 µg/mL (≈ 0.0185 to 0.185 µM) | < 0.01 µg/mL |
| Cc1cc2c(cc1NC(=O)C(=O)c1c(-c3ccccc3)cc(C)n1C)OCC1CN(c3ncc(F)cn3)CCN21 (stereo not drawn) [Example 10] | 0.01 to 0.1 µg/mL (≈ 0.0185 to 0.185 µM) | 0.01 to 0.1 µg/mL (≈ 0.0185 to 0.185 µM) | 0.01 to 0.1 µg/mL (≈ 0.0185 to 0.185 µM) | 0.01 to 0.1 µg/mL (≈ 0.0185 to 0.185 µM) |
| CCn1c(C)cc(-c2ccccc2)c1C(=O)C(=O)Nc1ccc2c(c1)OCC1CN(c3ncc(F)cn3)CCN21 (stereo not drawn) [Example 14] | < 0.01 µg/mL | < 0.01 µg/mL | 0.01 to 0.1 µg/mL (≈ 0.0185 to 0.185 µM) | < 0.01 µg/mL |

The next lines start with the values.

| MIC [1] | MIC [2] | MIC [3] | MIC [4] | SMILES |
| --- | --- | --- | --- | --- |
| < 0.01 µg/mL | < 0.01 µg/mL | < 0.01 µg/mL | < 0.01 µg/mL | Cc1cc(-c2ccccc2)c(C(=O)C(=O)Nc2ccc3c(c2)OCC2CN(c4ncc(F)cn4)CCN32)n1C (stereo not drawn) [Example 1] |
| < 0.01 µg/mL | 0.01 to 0.1 µg/mL (≈ 0.0175 to 0.175 µM) | < 0.01 µg/mL | < 0.01 µg/mL | COCCn1c(C)cc(-c2ccccc2)c1C(=O)C(=O)Nc1ccc2c(c1)OCC1CN(c3ncc(F)cn3)CCN21 (stereo not drawn) [Example 16] |
| < 0.01 µg/mL | < 0.01 µg/mL | < 0.01 µg/mL | < 0.01 µg/mL | Cc1cc(-c2ccccc2)c(C(=O)C(=O)Nc2ccc3c(c2)N(C)C[C@H]2CN(c4ncc(F)cn4)CCN32)n1C [Example 12-B] |
| < 0.01 µg/mL | < 0.01 µg/mL | < 0.01 µg/mL | < 0.01 µg/mL | Cc1cc(C)nc(N2CCN3c4ccc(NC(=O)C(=O)c5c(-c6ccccc6)cc(C)n5C)cc4OC[C@H]3C2)c1 [Example 2-B] |
| < 0.01 µg/mL | < 0.01 µg/mL | < 0.01 µg/mL | < 0.01 µg/mL | Cc1cc(-c2ccccc2)c(C(=O)C(=O)Nc2ccc3c(c2)N(C)C[C@@H]2CN(c4ncc(F)cn4)CCN32)n1C [Example 12-A] |
| < 0.01 µg/mL | < 0.01 µg/mL | < 0.01 µg/mL | < 0.01 µg/mL | Cc1cc(-c2ccccc2)c(C(=O)C(=O)Nc2cc3c(cc2F)N2CCN(c4ncc(F)cn4)CC2CO3)n1C (stereo not drawn) [Example 9] |
| < 0.01 µg/mL | < 0.01 µg/mL | < 0.01 µg/mL | < 0.01 µg/mL | Cc1cc(-c2ccccc2)c(C(=O)C(=O)Nc2ccc3c(c2)OC[C@H]2CN(c4ncc(F)cn4)CCN32)n1C [Example 1-B] |
| < 0.01 µg/mL | < 0.01 µg/mL | < 0.01 µg/mL | < 0.01 µg/mL | Cc1cc(C)nc(N2CCN3c4ccc(NC(=O)C(=O)c5c(-c6ccccc6)cc(C)n5C)cc4OCC3C2)c1 (stereo not drawn) [Example 2] |
